In article PMC9229949 (Pharmaceutics, 2022):
Where two headings read alike, the source gives them in different places.

What was measured:
[1] = Cytotoxicity against J774 cells (CellTiter-Glo); assay type: cell-based, murine; settings: mouse, J774 macrophage cells; J774 macrophages, 72 h, CellTiterGlo; at least two experiments; read-out: CC50 ± S.E.M.
Method: In vitro cytotoxicity was assayed against two mammalian cell lineages, J774 (murine macrophages) and HepG2 (human hepatocellular carcinoma). […] Cell cultures from 60 to 80% confluence were trypsinized, washed in complete medium, and 4 × 10^4 cells were plated in 100 µL per well with complete medium in 96-well flat-bottom white plates for 24 h at 37 °C prior to the addition of the compounds. Triplicate aliquots of compound and the reference drugs (stock solution in DMSO) covering 7 different concentrations at 2-fold dilutions were added to the wells, and plates were incubated for 72 h more. After incubation for 72 h at 37 °C, plates were maintained at room temperature, the culture medium was removed, and 100 µL volume of CellTiter-Glo reagent was added to each well. The bioluminescence was measured using a microplate reader Filtermax F5 Multi-Mode instrument (Molecular Devices) and Softmax software. […] The selectivity index (S.I.) was estimated using the IC50s from mammalian cells divided by the IC50 obtained against the asexual blood stage P. falciparum.

[2] = system: 3D7 P. falciparum gametocytes stages I/III; experiment: P. falciparum young gametocytes (stages I/III), luciferase viability; assay type: cell-based; settings: Plasmodium falciparum; 3D7 strain, 72 h; mean ± S.D. of one experiment; read-out: IC50, gametocytes of P. falciparum, Stages I/III
Method: (§1) The activity of compounds was assessed against young gametocytes (stages I/III) and against mature gametocytes (stage V). […] A volume of 100 μL of 3D7elo1-pfs16-CBG99 gametocytes of 3D7 P. falciparum at 0.5–1% parasitemia and 2% hematocrit were dispensed. […] Luciferase activity was used to determine gametocytes viability. A volume of 100 µL of culture medium was removed from each well to increase hematocrit; 70 µL of resuspended culture was transferred to a black 96-well plate; 70 µL of D-luciferin (1 mM in citrate buffer 0.1 M, pH 5.5) was added. Luminescence measurements were performed after 10 min with 500 ms integration time. The IC50 was extrapolated from nonlinear regression analysis of the concentration–response curve.

[3] = system: 3D7 P. falciparum gametocytes stage V; experiment: P. falciparum mature gametocytes (stage V), luciferase viability; assay type: cell-based; settings: 3D7 strain, 72 h, mean ± S.D. of one experiment, read-out: IC50, gametocytes of P. falciparum, Stage V
Method: as §1

β-hematin formation = β-hematin formation inhibition by infrared spectroscopy; assay type: biochemical; parameters: key: Yes indicates β-hematin inhibition; No indicates β-hematin formation; settings: 3:1 ratio of drug:hematin, qualitative by infrared
Method: The conversion of hemin to β-hematin was determined by infrared (IR) spectroscopy as described by Egan et al.. […] Then, 0.3 mL of 0.1 M HCl and 1.7 mL of sodium acetate buffer ([…], pH 5) were added at the same temperature. […] The solid was dried and IR spectra were obtained using attenuated total reflection (ATR) using chloroquine as a positive control.

[4] = target: T1, human glutathione reductase (hGR) (Homo sapiens, UniProt P00390); experiment: Inhibition of enzymatic activity of recombinant human glutathione reductase; assay type: biochemical; settings: recombinant enzyme, 15 min preincubation; mean of one experiment; read-out: IC50, Human GR
T1 construct: made in house
T1 sequence (P00390 44-522): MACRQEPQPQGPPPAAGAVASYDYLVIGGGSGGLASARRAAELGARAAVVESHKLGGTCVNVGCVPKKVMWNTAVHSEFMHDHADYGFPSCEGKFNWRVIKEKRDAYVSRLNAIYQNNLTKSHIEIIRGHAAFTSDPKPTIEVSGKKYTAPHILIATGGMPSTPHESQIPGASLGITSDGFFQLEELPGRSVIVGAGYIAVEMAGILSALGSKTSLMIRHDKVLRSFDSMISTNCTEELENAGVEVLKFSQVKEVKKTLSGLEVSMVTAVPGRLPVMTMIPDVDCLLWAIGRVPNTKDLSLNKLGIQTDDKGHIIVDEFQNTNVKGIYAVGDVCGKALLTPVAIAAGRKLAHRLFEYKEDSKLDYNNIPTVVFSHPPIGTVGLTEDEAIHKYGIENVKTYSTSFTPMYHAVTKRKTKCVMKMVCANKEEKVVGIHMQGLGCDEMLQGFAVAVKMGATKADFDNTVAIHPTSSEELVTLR
Method: The codon-optimized sequence for PfTrxR [27, 28] was synthesized and subcloned into pET-15b (Genscript) and expressed and purified as for human glutathione reductase (hGR). Recombinant Schistosoma mansoni (S. mansoni) thioredoxin glutathione reductase (SmTGR), human TrxR (hTrxR), and hGR proteins were expressed and purified as described. TrxR and TGR enzyme inhibition assays were performed in triplicate at 25 °C in 0.1 M potassium phosphate (pH 7.4), 10 mM EDTA, 100 µM NADPH and 0.01% Tween-20. SmTGR (4 nM), hTrxR (4 nM), and PfTrxR (50 nM) were preincubated with the compounds for 15 min. The reaction was started with addition of an equal volume of 5,5′-dithiobis(2-nitrobenzoic acid) (6 mM) and NADPH (100 µM). The increase in A412 during the first 3 min was recorded. […]. The reactions were performed in triplicate. The IC50s were calculated in Prism version 5.01.

[5] = Interaction with reduced glutathione (GSH) by monochlorobimane fluorescence assay
Method: Ten microliters per well of a solution of 2.0 mM reduced glutathione (Sigma-Aldrich, St. Louis, MO, USA, dissolved in PBS pH 7.2) was distributed in a 96-well microplate containing 170 μL/well of DMSO/PBS (1:1; v/v). Stock solutions of compounds were diluted in DMSO, and 10 μL was added in quadruplicate in the respective wells to a final concentration of 0.015 to 0.5 mM. […] After 1 h incubation at room temperature, fluorescence was recorded (λex = 360 nm, λem = 440 nm). Blank subtraction was performed prior to monochlorobimane addition, and controls included untreated wells (no drug) and no GSH. The results were expressed as a percentage of inhibition of GSH binding to monochlorobimane in comparison to control without compound. At least two independent experiments were performed.

## CCN(CC)Cc1cc(Nc2ccnc3cc(Cl)ccc23)ccc1O [Amodiaquine (AQ), amodiaquine]
[1]
  CC50 at 72 h: 23.8 µM
[2]
  IC50: 0.061 ± 0.02 µM
[3]; Plasmodium falciparum
  IC50: 23.6 ± 5 µM
β-hematin formation
  β-Hematin Inhibitory Activity (BHIA) Determined by IR: Yes
[4]
  IC50: > 66.7 µM

## [Cl][Au].c1ccc(P(c2ccccc2)c2ccccc2)cc1 [[AuClPPh3]]
[3]
  IC50: 15.2 ± 2.6 µM
[4]
  IC50: 0.00118 µM
[5]; 2 h incubation, 10 to 0.3 drug:GSH molar ratio
  interaction with GSH: able to interact with GSH in a drug-concentration manner
[5]; 24 h versus 2 h incubation
  binding to GSH at 24 h versus 2 h incubation: remained almost unaltered
